From US10647737B2, “Sulfated-glycolipids as adjuvants for vaccines” (National Research Council of Canada, priority 2014, dated 2020)
Where “and” joins values, the source holds several entries; their conditions need not be identical. Identical values can stand only once.

What was measured:
anti OVA antibody (IgG) = experiment: Anti-OVA antibody titre in sera of immunized mice (Elisa); assay type: in vivo; details: OVA-archaeosomes, immunized day 0 and 21; FIG. 13
Method: C57BL6 female mice ([…]) were immunized subcutaneously with 0.1 ml vaccines containing the equivalent of 20 μg OVA, often entrapped in archaeosomes of various compositions, A booster consisting of the same vaccine and route was given most often on week 3. In experiments addressing ability of archaeosomes to evoke immune response to a cancer self-antigen, TRP or Gp100 antigen in archaeosomes was administered at a dose of 15 μg antigen per injection and booster given on week 3.5 and week 8.5. In some experiments an additional third injection was given (˜95 days after first dose). All protocols and SOPs were approved by the NRC Animal Care Committee and conducted within the guidelines of the Canadian Council on Animal Care.
As a measure of CD4^+ T cell response, antibody raised to the antigen in the vaccine and present in the sera of mice (5-6 mice/group), was quantified by Elisa according to a previous description (Krishnan, L., Dicaire, C. J., Patel, G. B., and Sprott, G. D. 2000. Infect, Immun. 68:54-63). The CD8^+ T cell response was quantified by sacrificing 2 mice/group and pooling their splenic cells. These were assayed in triplicate for antigen-specific responses by Elispot and CTL methods (Krishnan, L., Sad, S., Patel, G. B., and Sprott, G. D. 2003. Cancer Res. 63:2526-2534).

[1] = Antigen loading of archaeosomes (SDS PAGE / SDS Lowry); assay type: physicochemical; details: OVA antigen entrapped in archaeosomes
Method: (§1) In one method, archaeosomes were formed by hydrating 20-30 mg dried lipid at 40° C. in 2 ml PBS buffer (10 mM sodium phosphate, 160 mM NaCl, pH 7.1) with the protein antigen OVA dissolved at 10 mg/ml. Vesicle size was reduced to about 100-150 nm diameter by brief sonication in a sonic bath (Fisher Scientific), and the portion of OVA antigen not entrapped was removed by centrifugation from 7 ml PBS followed by 2 washes (200,000×g max for 30 min). Vesicle pellets were resuspended in 2-2.5 ml PBS and filter sterilized through 0.45 μm Millipore filters. Sterile conditions and pyrogen-free water was used throughout.
In another method, lipids dissolved in t-butanol/water received antigen dissolved in an equal volume of water. The sample was then lyophilized to a powder and rehydrated in PBS buffer. […]
Quantification of antigen loading was conducted by separating protein(s) from lipids using SDS polyacrylamide gel electrophoresis as described (Sprott, G. D., Patel, G. B., and Krishnan, L. 2003. Methods Enzymol, 373:155-172). Loading of synthetic archaeosomes with antigens was also determined using SDS Lowry with standard curves prepared for the respective antigen. […] Average diameters based on Intensity and Zeta potentials were measured using a Malvern Nano Zetasizer with a He/Ne laser (Spectra Research Corp., Ontario, Canada).

CD8^+ T cell response = experiment: Elispot of IFN-γ-secreting splenic cells of mice immunized with OVA-archaeosomes; assay type: in vivo; details: OVA-loaded archaeosomes s.c. at 0 and 3 weeks; 6 weeks post first injection; FIG. 2
Method: (§2) C57BL6 female mice ([…]) were immunized subcutaneously with 0.1 ml vaccines containing the equivalent of 20 μg OVA, often entrapped in archaeosomes of various compositions, A booster consisting of the same vaccine and route was given most often on week 3. In experiments addressing ability of archaeosomes to evoke immune response to a cancer self-antigen, TRP or Gp100 antigen in archaeosomes was administered at a dose of 15 μg antigen per injection and booster given on week 3.5 and week 8.5. In some experiments an additional third injection was given (˜95 days after first dose). […]
(§3) As a measure of CD4^+ T cell response, antibody raised to the antigen in the vaccine and present in the sera of mice (5-6 mice/group), was quantified by Elisa according to a previous description (Krishnan, L., Dicaire, C. J., Patel, G. B., and Sprott, G. D. 2000. Infect, Immun. 68:54-63). The CD8^+ T cell response was quantified by sacrificing 2 mice/group and pooling their splenic cells. […]
In a first example, adjuvant activity of the natural sulfated glycolipid purified from Haloferax volcanii (6′-HSO3-D-Manp-α-1,2-D-Glcp-α-1,1-archaeol) was compared to a synthetic 6′-S-lactosylarchaeol, not found in nature. […] CD8^+ T cell responses measured by Elispot splenic cell assays. […]

EL-4+TRP target cells = experiment: CD8+ T cell response (ELISPOT, CTL) to cancer self-antigen TRP / Gp100 delivered in archaeosomes; assay type: in vivo, mice; details: TRP-liposomes; 15.5 weeks; FIG. 12
Method: as §2, §3
Peptides HLA.A2/H-2K^b TRP-2180-188 (SVYDFFVWL), CTL epitope from tyrosinase related protein-2 and Gp10025-35 (KVPRNQDWL) from human melanoma antigen Gp100 were synthesized. […] Quantification was done using a calibration curve based on known amounts of each of the respective peptides. […]

[2] = Average diameter of archaeosomes (Malvern Nano Zetasizer); assay type: physicochemical
Method: as §1
Quantification of antigen loading was conducted by separating protein(s) from lipids using SDS polyacrylamide gel electrophoresis as described (Sprott, G. D., Patel, G. B., and Krishnan, L. 2003. Methods Enzymol, 373:155-172). Loading of synthetic archaeosomes with antigens was also determined using SDS Lowry with standard curves prepared for the respective antigen. Loading was based on μg protein/mg salt corrected dry weight of lipid. Average diameters based on Intensity and Zeta potentials were measured using a Malvern Nano Zetasizer with a He/Ne laser (Spectra Research Corp., Ontario, Canada).

[3] = Archaeosome formation by hydration of dried lipid; assay type: physicochemical; details: lipid hydrated in PBS with antigen
Method: as §1
In another method, lipids dissolved in t-butanol/water received antigen dissolved in an equal volume of water. The sample was then lyophilized to a powder and rehydrated in PBS buffer. Size was reduced, antigen not entrapped was removed, and filtration conducted as above.

CC(C)CCCC(C)CCCC(C)CCCC(C)CCOCC(CO[C@@H]1O[C@H](CO)[C@@H](O[C@@H]2O[C@H](CO[C@@H]3O[C@H](COS(=O)(=O)O)[C@@H](O)[C@H](O)[C@H]3O)[C@H](O)[C@H](O)[C@H]2O)[C@H](O)[C@H]1O)OCCC(C)CCCC(C)CCCC(C)CCCC(C)C (stereo partly drawn) [sulfated-trisaccharide archaeol, 6′-sulfated β-D-Glcp-(1,6)-β-D-Galp-(1,4)-β-D-Glcp-(1,1)-archaeol]
antibody response to OVA in serum (anti OVA antibody (IgG)): strong antibody response

CC(C)CCCC(C)CCCC(C)CCCC(C)CCOCC(CO[C@@H]1O[C@H](CO)[C@@H](O[C@@H]2O[C@H](COS(=O)(=O)O)[C@H](OS(=O)(=O)O)[C@H](O)[C@H]2O)[C@H](O)[C@H]1O)OCCC(C)CCCC(C)CCCC(C)CCCC(C)C (stereo partly drawn) [di-sulfated LA, 4′-6′-disulfate-β-D-Galp-(1,4)-β-D-Glcp-(1,1)-archaeol]
antibody response to OVA in serum (anti OVA antibody (IgG)): strong antibody response

CC(C)CCCC(C)CCCC(C)CCCC(C)CCOCC(CO[C@@H]1OC(CO)[C@@H](O[C@@H]2OC(COS(=O)(=O)[O+]=[Na])[C@H](O)[C@H](O)C2O)[C@H](O)C1O)OCCC(C)CCCC(C)CCCC(C)CCCC(C)C (stereo partly drawn) [SLA, (2R)-2,3-Bis[(3R,7R,11R)-3,7,11,15-tetramethylhexadecyloxy]propan-1-yl 4-O-(6-O-sulfo-β-D-galactopyranosyl)-β-D-glucopyranoside]
Loading (μg antigen/mg archaeosome) [1]: 35.0 μg antigen/mg archaeosome and 22.0 μg antigen/mg archaeosome | CD8+ T cell response, frequency of IFN-γ-secreting splenic cells (Elispot) (CD8^+ T cell response): highest response | adjuvant activity and CD8+ T cell response, archaeol from H. salinarum versus H. volcanii (EL-4+TRP target cells): equally effective | Average Diameter (nm) 12 weeks ([2]; 12 weeks storage): 176 nm | Average Diameter (nm) 20 weeks ([2]; 20 weeks storage): 168 nm | Average Diameter (nm) At first injection ([2]; at first injection): 172 nm and 168 nm | archaeosome vesicle formation / hydrating ability [3]: excellent hydrating ability | antibody response to OVA in serum (anti OVA antibody (IgG)): strong antibody response

CC(C)CCCC(C)CCCC(C)CCCC(C)CCOCC(CO[C@@H]1O[C@H](CO[C@@H]2O[C@H](CO[C@@H]3O[C@H](CO)[C@@H](O)[C@H](O)[C@H]3O)[C@@H](O)[C@H](O)[C@H]2O)[C@@H](O)[C@H](O)[C@H]1O)OCCC(C)CCCC(C)CCCC(C)CCCC(C)C (stereo partly drawn) [Glc3A, β-Glcp-(1,6)-β-Glcp-(1,6)-β-D-Glcp-(1,1)-archaeol]
archaeosome vesicle formation / hydrating ability [3]: did not form

CC(C)CCC[C@@H](C)CCC[C@@H](C)CCC[C@@H](C)CCOC[C@@H](CO[C@@H]1O[C@H](CO)[C@@H](O[C@@H]2O[C@H](CO)[C@H](O)[C@H](O)[C@H]2O)[C@H](O)[C@H]1O)OCC[C@H](C)CCC[C@H](C)CCC[C@H](C)CCCC(C)C [LA, lactosylarchaeol]
archaeosome vesicle formation / hydrating ability [3]: did not hydrate well | archaeosome vesicle formation / hydrating ability ([3]; listed as lactosylarchaeol): did not form
